Results from US20110152303A1, “Chemical Compounds” (GlaxoSmithKline LLC, priority 2009, published 2011).

System: VSV-G pseudotyped, replication defective HIV vector (HIV IIIB) in CIP4 cells
Assay: microbe, parasite or virus in culture
Type: cell-based
Conditions: Human immunodeficiency virus 1, CIP4, 48 h, read-out: IC50 in the PHIV assay

## [2H]C([2H])([2H])c1cc(/C=C/C#N)cc(C([2H])([2H])[2H])c1Nc1ccnc(Nc2ccc(C#N)cc2)n1 [Compound D, (E)-4-((4-((4-(2-Cyanovinyl)-2,6-dimethylphenyl)amino)pyrimidin-2-yl)amino)benzonitrile-d6]
  IC50: 0.3 nM
